Experimental data taken from patent US9090583B2, “Benzopyrone estrogen receptor regulator” (BEIJING SHENOGEN PHARMA GROUP LTD., priority 2010, dated 2015).
≈ marks a conversion by molar mass, not a printed value. Read-outs that look alike come from different tables or passages of the source.

Legend:
MDA-MB-231 cells = test: CellTiter-Glo Luminescent Cell Viability Assay on ER-negative breast cancer MDA-MB-231 cells; format: cell-based; settings: average ± standard deviation when tested more than 3 times, read-out: Inhibition of the viability of breast cancer cells, IC50
Method: A: In Vitro CellTiter-Glo® Luminescent Cell Viability Assay on ER-Negative Breast Cancer MDA-MB-231 Cells:
MDA-MB-231 cells were maintained at 37° C., under 5% CO2 atmosphere in DMEM containing 10% fetal calf serum. The cells were seeded on 96-well plate at a density of 6×10^3 cells per well. MDA-MB-231 cells were treated with a test compound dissolved in DMSO at the concentrations of zero, 0.3 μM, 0.5 μM, 1 μM, 2 μM, 3 μM, 5 μM, 10 μM, 20 μM, 30 μM, 50 μM and 100 μM for 72 hours. Treated cells were examined by CellTiter-Glo® Luminescent Cell Viability Assay Kit (Promega), and luminescence values were recorded with Envision.

Hep3B2.1-7 cells = test: MTT assay, in vitro growth of liver cancer Hep3B2.1-7 cells; format: cell-based; settings: 72 hours; for IC50: read-out: Inhibition on liver cancer cells, IC50
Method: The liver cancer Hep3B2.1-7 cells were obtained from ATCC. Cells were incubated in 1640 culture medium with 5% fetal calf serum and 100 U/ml double-antibody in a cell incubator at 37° C., 5% CO2 atmosphere and passaged via conventional methods. The sample was dissolved in DMSO, formulated into 50 mg/ml stocking solution, and stored at 4° C. The test solutions at 50, 25, 12.5 and 6.25 μg/ml were formulated with culture medium immediately before use.
The adherent cells were digested with cell digestive solution, and then the exfoliated cells were collected and counted. The cell suspension was formulated with 1640 culture medium containing 5% fetal calf serum (5.0×10^4/ml). The cell suspension was seeded on 96-well plate with 100 μl/well, and maintained in a cell incubator at 37° C., 5% CO2 atmosphere for 24 hours. After that, the compounds at various concentrations were added, where solvent was taken as negative control and Taxol as positive control. 10 μl MTT (5 mg/ml) was added after 72 hours. The supernatant was removed after cultivation for 3 hours more, 150 μl DMSO was added and the formazan was dissolved on shaking. OD values were measured at 570 nm after homogeneous mixing, and inhibition rate and IC50 values were calculated based on the mean of OD values from 3 wells.

MCF7 cells = test: CellTiter-Glo Luminescent Cell Viability Assay on ER-positive breast cancer MCF-7 cells; format: cell-based, human; settings: average ± standard deviation when tested more than 3 times, read-out: Inhibition of the viability of breast cancer cells, IC50
Text: B: In Vitro CellTiter-Glo® Luminescent Cell Viability Assay on ER-Positive Breast Cancer MCF-7 Cells:
MCF7 cells are breast cancer cell lines that highly express ER-66, ER-46 and ER-36. (Relevance of breast cancer cell lines as models for breast tumours: an update. Marc Lacroix, Guy Leclercq, Breast Cancer Research and Treatment (2004) 83, 249-289; Wang et al., Proc. Natl. Acad. Sci. U.S.A. 103:9063-9068 (2006)). MCF7 cells were obtained from ATCC and maintained in Dulbecco's Modified Eagles Medium (DMEM) and 10% fetal calf serum at 37° C., under 5% CO2 atmosphere. The cells were seeded on 96-well plate at a density of 6×10^3 cells per well. MCF7 cells were treated with a test compound dissolved in DMSO at the concentrations of zero, 0.3 μM, 0.5 μM, 1 μM, 2 μM, 3 μM, 5 μM, 10 μM, 20 μM, 30 μM, 50 μM and 100 μM for 72 hours. Treated cells were examined by CellTiter-Glo® Luminescent Cell Viability Assay Kit (Promega), and luminescence values were recorded with Envision.

Molecule	IC50 (MDA-MB-231 cells; 72 hours) [µM]	Inhibition on liver cancer cells, IC50 (Hep3B2.1-7 cells) [µg/mL]	IC50 (MCF7 cells; 72 hours) [µM]	IC50 (MDA-MB-231 cells; Homo sapiens, MDA-MB-231, 72 h) [µM]	IC50 (Hep3B2.1-7 cells) [µg/mL]	IC50 (MCF7 cells; Homo sapiens, MCF7, 72 h) [µM]
2-(4-fluoromethoxyphenyl)-5,7-dihydroxy-3-methoxy-6,8-di(3-methyl-2-buten-1-yl)-4H-benzopyran-4-one [Compound 61]	3.28	0.04	3.52			
COc1c(-c2ccc(Cl)cc2)oc2c(CC=C(C)C)c(O)c(CC=C(C)C)c(O)c2c1=O [Compound 10, 2-(4-chlorophenyl)-5,7-dihydroxy-3-methoxy-6,8-di(3-methyl-2-butylene-1-yl)-4H-benzopyran-4-one]	8.89	9.43	> 100			
COc1c(-c2ccc(C#N)cc2)oc2c(CC=C(C)C)c(O)c(CC=C(C)C)c(O)c2c1=O [Compound 57, 4-[5,7-dihydroxy-3-methoxy-6,8-di(3-methyl-2-butenyl)-4-oxo-4H-benzopyran-2-yl]benzonitrile]				2.85	21 (≈ 47.2 µM)	4.84
COc1c(-c2ccc(C(N)=O)cc2)oc2c(CC=C(C)C)c(O)c(CC=C(C)C)c(O)c2c1=O [Compound 60, 4-[5,7-dihydroxy-3-methoxy-6,8-di(3-methyl-2-buten-1-yl)-4-oxo-4H-benzopyran-2-yl]benzamide]				6.36	9.95 (≈ 21.5 µM)	3.02
COc1c(-c2ccc(S(N)(=O)=O)cc2)oc2c(CC=C(C)C)c(O)c(CC=C(C)C)c(O)c2c1=O [Compound 63, 4-[5,7-dihydroxy-3-methoxy-6,8-di(3-methyl-2-buten-1-yl)-4-oxo-4H-benzopyran-2-yl]benzene sulfonamide]				4.87	14 (≈ 28 µM)	6.06
COc1c(-c2ccc(C(C)(C)O)cc2)oc2c(CC=C(C)C)c(O)c(CC=C(C)C)c(O)c2c1=O [Compound 66]	2.86	0.24	3.91			
COc1c(-c2ccc(S(=O)(=O)N(C)C)cc2)oc2c(CC=C(C)C)c(O)c(CC=C(C)C)c(O)c2c1=O [Compound 69, 4-[5,7-dihydroxy-3-methoxy-6,8-di(3-methyl-2-buten-1-yl)-4-oxo-4H-benzopyran-2-yl]-N,N-dimethylbenzene sulfonamide]				1.87	3.89 (≈ 7.37 µM)	> 100
CNS(=O)(=O)c1ccc(-c2oc3c(CC=C(C)C)c(O)c(CC=C(C)C)c(O)c3c(=O)c2OC)cc1 [Compound 70, 4-[5,7-dihydroxy-3-methoxy-6,8-di(3-methyl-2-buten-1-yl)-4-oxo-4H-benzopyran-2-yl]N-methylbenzene sulfonamide]				7.64	0.39 (≈ 0.759 µM)	> 100
COc1c(-c2ccc(O)c(C)c2)oc2c(CC=C(C)C)c(O)c(CC=C(C)C)c(O)c2c1=O [Compound 75, 2-(3-methyl-4-hydroxyphenyl)-5,7-dihydroxy-3-methoxy-6,8-di(3-methyl-2-buten-1-yl)-4H-benzopyran-4-one]				11.6	0.83 (≈ 1.84 µM)	49
COc1c(-c2ccc(O)c(Cl)c2)oc2c(CC=C(C)C)c(O)c(CC=C(C)C)c(O)c2c1=O [Compound 76, 2-(3-chloro-4-hydroxyphenyl)-5,7-dihydroxy-3-methoxy-6,8-di(3-methyl-2-buten-1-yl)-4H-benzopyran-4-one]				3	5.79 (≈ 12.3 µM)	4.08
COc1c(-c2ccc(O)c(C(F)(F)F)c2)oc2c(CC=C(C)C)c(O)c(CC=C(C)C)c(O)c2c1=O [Compound 77, 2-(3-trifluoromethyl-4-hydroxyphenyl)-5,7-dihydroxy-3-methoxy-6,8-di(3-methyl-2-buten-1-yl)-4H-benzopyran-4-one]				15.4	3.08 (≈ 6.11 µM)	> 100
COc1c(-c2ccc(F)c(O)c2)oc2c(CC=C(C)C)c(O)c(CC=C(C)C)c(O)c2c1=O [Compound 78, 2-(3-hydroxy-4-fluorophenyl)-5,7-dihydroxy-3-methoxy-6,8-di(3-methyl-2-buten-1-yl)-4H-benzopyran-4-one]				5.36	8.95 (≈ 19.7 µM)	5.46
COc1c(-c2ccc(O)c(F)c2)oc2c(CC=C(C)C)c(O)c(CC=C(C)C)c(O)c2c1=O [Compound 79, 2-(3-fluoro-4-hydroxyphenyl)-5,7-dihydroxy-3-methoxy-6,8-di(3-methyl-2-buten-1-yl)-4H-benzopyran-4-one]				3.64	8.23 (≈ 18.1 µM)	5.33
CC(C)=CCc1c(O)c(CC=C(C)C)c2oc(-c3ccc(Cl)cc3)cc(=O)c2c1O [Compound 91, 2-(4-chlorophenyl)-5,7-dihydroxy-6,8-di(3-methyl-2-buten-1-yl)-4H-benzopyran-4-one]				8.89		> 100
CC(C)=CCc1c(O)c(CC=C(C)C)c2oc(-c3cccnc3)cc(=O)c2c1O [Compound 92, 2-(pyridin-3-yl)-5,7-dihydroxy-6,8-di(3-methyl-2-buten-1-yl)-4H-benzopyran-4-one]				21.5		> 100
CC(C)=CCc1c(O)c(CC=C(C)C)c2oc(-c3ccc(F)c(F)c3)c(C)c(=O)c2c1O [Compound 93, 2-(3,4-difluorophenyl)-3-methyl-5,7-dihydroxy-6,8-di(3-methyl-2-buten-1-yl)-4H-benzopyran-4-one]				27.5		15.6
CC(C)=CCc1c(O)c(CC=C(C)C)c2oc(-c3ccc(Cl)c(F)c3)c(C)c(=O)c2c1O [Compound 94, 2-(3-fluoro-4-chlorophenyl)-3-methyl-5,7-dihydroxy-6,8-di(3-methyl-2-buten-1-yl)-4H-benzopyran-4-one]				31.3		15.6
CC(C)=CCc1c(O)c(CC=C(C)C)c2oc(-c3ccc(F)c(F)c3)c(O)c(=O)c2c1O [Compound 95, 2-(3,4-difluorophenyl)-3,5,7-trihydroxy-6,8-di(3-methyl-2-buten-1-yl)-4H-benzopyran-4-one]				10.4 ± 1.93		6.62 ± 1.93
CC(C)=CCc1c(O)c(CC=C(C)C)c2oc(-c3ccc(Cl)c(F)c3)c(O)c(=O)c2c1O [Compound 96, 2-(3-fluoro-4-chlorophenyl)-3,5,7-trihydroxy-6,8-di(3-methyl-2-buten-1-yl)-4H-benzopyran-4-one]				10.4		> 100
CC(=O)O[C@H]1C(=O)[C@@]2(C)[C@H]([C@H](OC(=O)c3ccccc3)[C@]3(O)C[C@H](OC(=O)[C@H](O)[C@@H](NC(=O)c4ccccc4)c4ccccc4)C(C)=C1C3(C)C)[C@]1(OC(C)=O)CO[C@@H]1C[C@@H]2O [Taxol, reference compound]					42.8 (≈ 50.1 µM)	
